Values quoted from earlier work, collected in patent US7431914B2, “Contrast agent” (GE Healthcare AS, priority 2003, dated 2008).

Details: both the drug and the chelate conjugate

## CCCCc1nc(Cl)c(CO)n1Cc1ccc(-c2ccccc2-c2nn[nH]n2)cc1 [Losartan]
  excrete through the liver: more than 80%
